In patent publication US10280167B2, “Purine derivatives for the treatment of viral infections” (JANSSEN SCIENCES IRELAND UC, priority 2011, dated 2019):

Assays:
Type in all cases: cell-based
[1] = tested on: Huh-7 luc/neo HCV replicon cells with conditioned media from PBMC; test: Interferon production in human PBMC (PBMC-HUH7_EC50), HCV replicon readout with conditioned media; conditions: Homo sapiens, Huh-7; concentration applied to PBMCs giving 50% reduction of replicon luciferase activity
Method: Measurement of Interferon Production in Human PBMC (PBMC-HUH7_EC50)
Activation of human TLR7 results in robust production of interferon by plasmacytoid dendritic cells present in human blood. The potential of compounds to induce interferon was evaluated by looking at the antiviral activity in the HCV replicon system upon incubation with conditioned media from peripheral blood mononuclear cells (PBMC). The HCV replicon assay is based on a bicistronic expression construct, as described by Lohmann et al. (Science (1999) 285: 110-113; Journal of Virology (2003) 77: 3007-15 3019) with modifications described by Krieger et al. (Journal of Virology (2001) 75: 4614-4624). The assay utilized the stably transfected cell line Huh-7 luc/neo harboring an RNA encoding a bicistronic expression construct comprising the wild type NS3-NS5B regions of HCV type 1b translated from an Internal Ribosome Entry Site (IRES) from encephalomyocarditis virus (EMCV), preceded by a reporter gene (Firefly-luciferase) and a selectable marker gene (neoR, neomycine phosphotransferase). The construct is flanked by 5′ and 3′ NTRs (non-translated regions) from HCV type 1b. Continued culture of the replicon cells in the presence of G418 (neoR) is dependent on the replication of the HCV RNA. The stably transfected replicon cells that replicate HCV RNA autonomously and to high levels, encoding inter alia luciferase, were used for profiling of the conditioned cell culture media. Briefly, PBMCs were prepared from buffy coats of at least two donors using a standard Ficoll centrifugation protocol. Isolated PBMCs were resuspended in RPMI medium supplemented with 10% human AB serum and 2×10^5 cells/well were dispensed into 384-well plates containing compounds (70 μL total volume). After overnight incubation, […] was transferred to 384-well plates containing 2.2×10^3 replicon cells/well in 30 μL (plated the day before). Following 24 hours of incubation, replication was measured by assaying luciferase activity using 40 μL/well Steady Lite Plus substrate (Perkin Elmer) and measured with ViewLux ultraHTS microplate imager (Perkin Elmer). The inhibitory activity of each compound on the Huh7-luc/neo cells were reported as EC50 values, defined as the compound concentration applied to the PBMCs resulting in a 50% reduction of luciferase activity which in turn indicates the degree of replication of the replicon RNA on transfer of a defined amount of PBMC culture medium. Recombinant interferon α-2a (Roferon-A) was used as a standard control compound.

[2] = tested on: HEK-ISRE-luc cells with conditioned media from PBMC; test: Interferon production in human PBMC (PBMC HEK-ISRE-luc LEC); conditions: Homo sapiens, PBMC; lowest effective concentration; read-out: PBMC HEK-ISRE-luc (LEC)
Method: Measurement of Interferon Production in Human PBMC (PBMC HEK-ISRE-Luc LEC)
Activation of human TLR7 results in robust production of interferon by plasmacytoid dendritic cells present in human blood. The potential of compounds to induce interferon was evaluated by determination of interferon in the conditioned media from peripheral blood mononuclear cells (PBMC). The presence of interferon in the samples was determined, using an interferon reporter cell line stably expressing an interferon-stimulated responsive elements (ISRE)-luc reporter construct. The ISRE element with sequence GAAACTGAAACT (SEQ ID NO: 1) is highly responsive to the STAT1-STAT2-IRF9 transcription factor, which becomes activated upon binding of IFN-I to the IFN receptor. Briefly, PBMCs were prepared from buffy coats of at least two donors using a standard Ficoll centrifugation protocol. Isolated PBMCs were resuspended in RPMI medium supplemented with 10% human AB serum and 2×10^5 cells/well were dispensed into 384-well plates containing compounds (70 μL total volume). After overnight incubation of the PBMCs with the compounds, 10 μL of supernatant was transferred to 384-well plates containing 5×10^3 HEK-ISRE-luc cells/well in 30 μL (plated the day before). Following 24 hours of incubation, activation of the ISRE elements was measured by assaying luciferase activity using 40 μL/well Steady Lite Plus substrate (Perkin Elmer) and measured with ViewLux ultraHTS microplate imager (Perkin Elmer). The stimulating activity of each compound on the HEK-ISRE-luc cells was reported as LEC. The LEC in turn indicates the degree of ISRE activation on transfer of a defined amount of PBMC culture medium.
Recombinant interferon alfa-2a (Roferon-A) was used as a standard control compound.

human TLR7 dIRR2 mutant [3] = test: Reporter assay for TLR7 activity, HEK293 transfected with mutant TLR7 (dIRR2 deletion) and NFκB-luc; conditions: lowest effective concentration; 48 h transfection
human TLR7 [4] = target: T1, human TLR7 (Homo sapiens (Human), UniProt Q9NYK1); test: Reporter assay for TLR7 activity, HEK293 transiently transfected with wild type TLR7 and NFκB-luc; conditions: lowest effective concentration; 48 h transfection
T1 sequence (Q9NYK1 27-1049): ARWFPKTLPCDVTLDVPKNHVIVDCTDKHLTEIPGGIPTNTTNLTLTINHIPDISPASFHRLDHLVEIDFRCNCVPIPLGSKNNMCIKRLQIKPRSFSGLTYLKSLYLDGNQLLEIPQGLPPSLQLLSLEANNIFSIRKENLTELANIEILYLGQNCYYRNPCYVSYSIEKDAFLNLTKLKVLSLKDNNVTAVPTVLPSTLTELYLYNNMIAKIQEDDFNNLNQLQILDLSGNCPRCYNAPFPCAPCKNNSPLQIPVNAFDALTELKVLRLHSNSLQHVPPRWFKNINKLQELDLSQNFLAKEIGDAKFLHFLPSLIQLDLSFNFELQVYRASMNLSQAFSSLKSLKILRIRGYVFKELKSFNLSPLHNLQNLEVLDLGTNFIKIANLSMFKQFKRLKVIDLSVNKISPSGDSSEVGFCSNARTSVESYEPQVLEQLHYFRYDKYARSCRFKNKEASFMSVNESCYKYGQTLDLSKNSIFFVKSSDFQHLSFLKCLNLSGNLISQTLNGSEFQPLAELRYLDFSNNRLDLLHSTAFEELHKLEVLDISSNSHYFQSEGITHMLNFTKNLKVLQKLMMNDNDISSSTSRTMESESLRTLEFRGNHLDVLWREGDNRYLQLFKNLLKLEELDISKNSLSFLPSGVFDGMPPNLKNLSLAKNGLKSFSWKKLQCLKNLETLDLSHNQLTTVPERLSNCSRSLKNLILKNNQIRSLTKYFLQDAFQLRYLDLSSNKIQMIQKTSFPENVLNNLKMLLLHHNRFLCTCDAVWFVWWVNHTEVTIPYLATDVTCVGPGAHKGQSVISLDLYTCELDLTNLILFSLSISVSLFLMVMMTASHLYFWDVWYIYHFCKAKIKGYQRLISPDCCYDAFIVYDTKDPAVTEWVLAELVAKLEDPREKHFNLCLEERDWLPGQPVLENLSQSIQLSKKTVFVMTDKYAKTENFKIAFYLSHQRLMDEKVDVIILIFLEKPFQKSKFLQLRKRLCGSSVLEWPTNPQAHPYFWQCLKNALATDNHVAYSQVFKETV

human TLR7 dIRR2 mutant [5] = test: Reporter assay for TLR7 activity, HEK293 transfected with mutant TLR7 (dIRR2 deletion) and NFκB-luc; conditions: lowest effective concentration; 24 h transfection
Method: (§1) Reporter Assays for Assessment of TLR7 Activity (24 h)
(§2) The ability of compounds to activate human TLR7 was assessed in a cellular reporter assay using HEK293 cells transiently transfected with a TLR7 or TLR8 expression vector and NFκB-luc reporter construct. In one instance the TLR expression construct expresses the respective wild type sequence or a mutant sequence comprising a deletion in the second leucine-rich repeat (dIRR2) of the TLR.
(§3) Briefly, HEK293 cells were grown in culture medium (DMEM supplemented with 10% FCS and 2 mM Glutamine). For transfection of cells in 10 cm dishes, cells were detached with Trypsin-EDTA, transfected with a mix of CMV-TLR7 or TLR8 plasmid (750 ng), NFκB-luc plasmid (375 ng) and a transfection reagent and incubated 24 hours or 48 hours respectively at 37° C. in a humidified 5% CO2 atmosphere. Transfected cells were then detached with Trypsin-EDTA, washed in PBS and resuspended in medium to a density of 1.67×10^5 cells/mL. Thirty microliters of cells were then dispensed into each well in 384-well plates, where 10 μL of compound in 4% DMSO was already present. Following 6 hours incubation at 37° C., 5% CO2, the luciferase activity was determined by adding 15 μl of Steady Lite Plus substrate (Perkin Elmer) to each well and readout performed on a ViewLux ultraHTS microplate imager (Perkin Elmer). Dose response curves were generated from measurements performed in quadruplicates. Lowest effective concentrations (LEC) values, defined as the concentration that induces an effect which is at least two fold above the standard deviation of the assay, were determined for each compound. Compound toxicity was determined in parallel using a similar dilution series of compound with 30 μL per well of cells transfected with the CMV-TLR7 construct alone (1.67×10^5 cells/mL), in 384-well plates. Cell viability was measured after 6 hours incubation at 37° C., 5% CO2 by adding 15 μL of ATP lite (Perkin Elmer) per well and reading on a ViewLux ultraHTS microplate imager (Perkin Elmer). Data was reported as CC50.

human TLR7 [6] = target: T1, human TLR7; test: Reporter assay for TLR7 activity, HEK293 transiently transfected with wild type TLR7 and NFκB-luc; conditions: lowest effective concentration; 24 h transfection
Method: as §1, §2, §3

TLR8 = test: Reporter assay HEK293 TLR8-NFκB-luc; conditions: greater than the highest tested concentration
Method: as §2
Briefly, HEK293 cells were grown in culture medium (DMEM supplemented with 10% FCS and 2 mM Glutamine). […] Following 6 hours incubation at 37° C., 5% CO2, the luciferase activity was determined by adding 15 μl of Steady Lite Plus substrate (Perkin Elmer) to each well and readout performed on a ViewLux ultraHTS microplate imager (Perkin Elmer). […] Lowest effective concentrations (LEC) values, defined as the concentration that induces an effect which is at least two fold above the standard deviation of the assay, were determined for each compound. Compound toxicity was determined in parallel using a similar dilution series of compound with 30 μL per well of cells transfected with the CMV-TLR7 construct alone (1.67×10^5 cells/mL), in 384-well plates. Cell viability was measured after 6 hours incubation at 37° C., 5% CO2 by adding 15 μL of ATP lite (Perkin Elmer) per well and reading on a ViewLux ultraHTS microplate imager (Perkin Elmer). […]

HEK293 NFκB-luc = test: Reporter assay HEK293 NFκB-luc; conditions: greater than the highest tested concentration

SMILES | EC50 [1] [nM] | minimal effective concentration [2] [µM] | TLR7-dIRR2_LEC 48 h (human TLR7 dIRR2 mutant [3]) [µM] | TLR7-wt_LEC 48 h (human TLR7 [4]) [µM] | TLR7-dIRR2_LEC 24 h (human TLR7 dIRR2 mutant [5]) [µM] | TLR7-wt_LEC 24 h (human TLR7 [6]) [µM] | LEC on HEK293 TLR8-NFκB-luc (TLR8) [µM] | LEC on HEK293 NFκB-luc (HEK293 NFκB-luc) [µM]
Cc1[nH]c(-c2nc(N)c3[nH]c(=O)n(Cc4ccccc4)c3n2)nc1C1CC1 [Compound 5] | 200 | 0.13 | 1.13 | 21.47 | 2.2 | – | – | –
Nc1nc(-c2nc(C3CC3)c[nH]2)nc2c1[nH]c(=O)n2Cc1ccccc1 [Compound 1] | 81 | 0.064 | 0.18 | 8.25 | 0.33 | – | – | –
Nc1nc(-c2ccc[nH]2)nc2c1[nH]c(=O)n2Cc1ccccc1 [Compound 18] | 2580 | – | 3.81 | 20.31 | 3.23 | >24.59 | – | –
Nc1nc(-c2nc(C3CC3)c[nH]2)nc2c1[nH]c(=O)n2CC1CCOCC1 [Compound 10] | 730 | 0.44 | 10.13 | >25 | 18.93 | – | – | –
Nc1nc(-c2cn[nH]c2)nc2c1[nH]c(=O)n2Cc1ccccc1 [Compound 19] | 12400 | – | 16.6 | >25 | 13.31 | >24.59 | – | –
Nc1nc(-c2ccco2)nc2c1[nH]c(=O)n2Cc1ccccc1 [Compound 20] | 680 | – | 0.5 | 6.34 | 0.5 | – | – | –
Nc1nc(-c2ncc[nH]2)nc2c1[nH]c(=O)n2Cc1ccccc1 [Compound 4] | 160 | 0.12 | 0.04 | 1.23 | 0.077 | – | – | –
Nc1nc(-c2cncnc2)nc2c1[nH]c(=O)n2Cc1ccccc1 [Compound 15] | 16900 | – | 9.75 | >25 | 10.57 | >24.59 | – | –
Nc1nc(-c2nc(C3CCCC3)c[nH]2)nc2c1[nH]c(=O)n2Cc1ccccc1 [Compound 3] | 14000 | – | – | – | 7.67 | >24.59 | – | –
Nc1nc(-c2nc(-c3ccccc3)c[nH]2)nc2c1[nH]c(=O)n2Cc1ccccc1 [Compound 2] | 531 | – | – | – | 1.2 | 4.72 | – | –
Cn1ccnc1-c1nc(N)c2[nH]c(=O)n(Cc3ccccc3)c2n1 [Compound 12] | 590 | 0.34 | 0.3 | 8.08 | – | – | – | –
CCc1[nH]c(-c2nc(N)c3[nH]c(=O)n(Cc4ccccc4)c3n2)nc1C1CC1 [Compound 6] | 53 | 0.04 | 0.34 | 6.32 | 0.66 | – | > 10 | > 10
Nc1nc(-n2cccn2)nc2c1[nH]c(=O)n2Cc1ccccc1 [Compound 36] | 47 | 0.033 | 0.017 | 0.22 | – | – | – | –
Cc1c[nH]c(-c2nc(N)c3[nH]c(=O)n(Cc4ccccc4)c3n2)n1 [Compound 8] | 170 | 0.25 | 0.17 | 5.91 | – | – | – | –
